# Assays:
# ULK1 = target: T1, ULK1 (Homo sapiens, UniProt O75385); test: ULK1/TOM20 co-localisation immunofluorescence in PANC-1 cells; type: cell-based; parameters: pSer317 blot or TOM20 co-localisation; conditions: PANC-1, 18 hours, alone
# T1 sequence (O75385 1-1050): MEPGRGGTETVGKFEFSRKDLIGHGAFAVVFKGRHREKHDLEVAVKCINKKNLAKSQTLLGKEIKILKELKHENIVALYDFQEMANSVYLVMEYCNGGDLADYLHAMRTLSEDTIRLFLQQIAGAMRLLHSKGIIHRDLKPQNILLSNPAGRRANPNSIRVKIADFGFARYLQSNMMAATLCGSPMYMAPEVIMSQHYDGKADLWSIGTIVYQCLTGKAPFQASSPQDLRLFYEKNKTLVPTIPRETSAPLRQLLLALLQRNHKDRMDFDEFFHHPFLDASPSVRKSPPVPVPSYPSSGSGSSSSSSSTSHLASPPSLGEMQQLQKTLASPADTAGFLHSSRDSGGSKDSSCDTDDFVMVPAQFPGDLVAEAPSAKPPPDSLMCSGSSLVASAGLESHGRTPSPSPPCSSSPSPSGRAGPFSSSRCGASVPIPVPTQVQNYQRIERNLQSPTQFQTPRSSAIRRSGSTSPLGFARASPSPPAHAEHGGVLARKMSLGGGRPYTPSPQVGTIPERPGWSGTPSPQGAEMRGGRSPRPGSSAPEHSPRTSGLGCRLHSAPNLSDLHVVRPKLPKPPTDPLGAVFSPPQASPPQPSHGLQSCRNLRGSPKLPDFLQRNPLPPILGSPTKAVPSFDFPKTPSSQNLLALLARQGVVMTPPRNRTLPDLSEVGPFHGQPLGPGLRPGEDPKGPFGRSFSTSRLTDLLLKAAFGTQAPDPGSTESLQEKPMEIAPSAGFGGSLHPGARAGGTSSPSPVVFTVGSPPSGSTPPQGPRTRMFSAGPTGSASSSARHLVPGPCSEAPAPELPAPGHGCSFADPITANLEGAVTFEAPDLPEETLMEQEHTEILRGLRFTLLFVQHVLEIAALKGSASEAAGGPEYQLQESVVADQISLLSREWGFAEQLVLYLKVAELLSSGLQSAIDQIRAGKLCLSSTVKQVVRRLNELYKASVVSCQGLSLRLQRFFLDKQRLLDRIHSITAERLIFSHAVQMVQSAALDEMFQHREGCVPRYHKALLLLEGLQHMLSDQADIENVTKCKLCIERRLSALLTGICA
# Protocol: (§1) FIG. 5. ULKTACs induce potent mitophagy after colocalisation and local activation of ULK1 at mitochondria (A) Representative immunofluorescence of PANC-1 cells treated with CCCP, ULKTACs or both and immunostained for TOM20 and ULK1 and counterstained with Alexa 488 and 568, respectively. Nuclei stained with Hoechst 33342. (B) Quantification of the colocalised ULK1 to TOM20 spot area of PANC-1 cells treated with DMSO, 5 mM CCCP, 10 mM BL-918, 10 mM BL-918+5 mM CCCP, […] NZ-65, […] NZ-65+5 mM CCCP, […] NZ-66, […] NZ-66+5 mM CCCP, 50 mM TSPO ligand, […] NZ-65+50 mM TSPO ligand, […] NZ-66+50 mM TSPO ligand. (C) Western blot of SH-SY5Y cells treated with 1 mM ULKTACs, 5 mM CCCP or both, probed for Mfn2, b-Actin and Tom20—quantifications are shown in (D) for Mfn2, normalised to Actin. (E) Representative images of SH-SY5Y cells stably expressing the mito-mKeima reporter treated with 3 mM CCCP, NZ-65 or both. Nuclei were stained with Hoechst 33342, healthy mitochondria are shown in green and mitochondria in lysosomes are shown in red. Fold change in mitophagy index over time after treatment for the indicated timepoints with title treatments alone or co-treated with 1.25 mM ULKTAC or 10 mM ULKTAC NZ-65 (F) or NZ-66 (G). Fold change in mitophagy index over time after treatment for the indicated timepoints with DMSO, 1.25 µM NZ-65 or NZ-66±50 µM TSPO ligand under co-treatment with DMSO (H) or 3 μM CCCP (I). […] Normalised to number of nuclei. All data shown are mean±SEM, n=3, *p<0.05, ** p<0.01, *** p<0.001. For colocalisation and TMRM experiments, one-way ANOVA with Dunnett's multiple comparisons test. For western blots, one-way ANOVA with Tukey's multiple comparisons test and unpaired t-test. For mito-mKeima experiment, two-way ANOVA with Tukey's multiple comparisons test.
# For TOM20/ULK1 immunofluorescence, cells were seeded in a 384 well PerkinElmer CellCarrier Ultra plate 24 hours prior to treatment with compounds. Cells were treated for 18 hours after which they were fixed with 4% paraformaldehyde (PFA) in phosphate buffered saline (PBS) and blocked with 10% FBS and 0.1% Triton in PBS. Plates were incubated at 4° C. overnight, with 1:400 mouse anti-TOM20 (Santa Cruz, #sc-17764) and 1:400 rabbit anti-ULK1 (Cell Signalling Technologies, #0854). The following day, plates were incubated with 1:1000 goat anti-mouse Alexa 488 (ThermoFisher Scientific, #A-11029), 1:1000 goat anti-rabbit Alexa 568 (ThermoFisher Scientific, #A-11011) and 1.62 μM Hoechst 33342 at room temperature for 1 hour before imaging. For ATP5a/LC3 immunofluorescence, cells were fixed with ice-cold 1:1 MeOH: acetone and blocked with 3% BSA (Sigma-Aldrich, #A3803) in Dulbecco's PBS (D-PBS). Plates were incubated overnight at 4° C. with 1:400 LC3B (D11) XP Rabbit mAb Alexa Fluor 647 Conjugate (Cell Signalling Technologies, #65299) and 1:400 ATP5a (Cell Signalling Technologies, #18023) lightning-linked to Alexa Fluor 488. The following day, plates were incubated with 1.62 […] at room temperature for 1 hour before imaging. Excitation and emission spectra for each channel are as follows: Hoechst 33342=405/435-480 nm, Alexa 488=488/500-550 nm and Alexa 568=561/570-630 nm. Images were acquired at 40× and 63× magnification with water immersion lens.
# To understand the temporal kinetics of NZ-65 and NZ-66, we assessed the recruitment of ULK1 to mitochondria, using co-localisation of ULK1 and TOM20 by immunofluorescence. […] After showing the co-localisation of ULK1 to the outer mitochondrial membrane (OMM) after ULKTAC treatment, we wanted to determine whether the ULKTACs induced mitophagy. To do this, we measured changes in Mfn2 under basal conditions and co-treatment with CCCP (FIG. 5C, D).
# SH-SY5Y cells = test: mito-mKeima mitophagy assay (mitophagy index); type: cell-based, human; conditions: mitochondrial toxin treatment
# Protocol: FIG. 1. The structure of AUTAC-4 is shown in (A). (B) Representative images of SH-SY5Y cells stably expressing the mito-mKeima reporter treated with AUTAC4 for 18 h. Nuclei were stained with Hoechst 33342, healthy mitochondria are shown in green and mitochondria in lysosomes are shown in red. (C-E) Fold change in mitophagy index over time after treatment with increasing concentrations of AUTAC4 under treatment with DMSO (C), 3 mM CCCP (D) or 0.1/0.1 mM antimycin/oligomycin (E), also for 18 h. (F) Quantification of changes in mitochondrial membrane potential over time (DYm) by measuring the TMRM relative fluorescence intensity (RFI) treated with DMSO, 10 mM CCCP, 10 mM and 20 mM AUTAC4. Normalised to number of nuclei. (G) Representative western blot of SH-SY5Y cells treated with DMSO, 10 mM AUTAC4 or 10 mM AUTAC4+0.1/0.1 mM antimycin/oligomycin for 18 h and, probed for p62, b-actin and Tom20. Quantifications of western blot for changes in Tom20 and p62 levels shown in (H) and (I), respectively. (J) Representative images of PANC-1 cells stably expressing the mCherry-EGFP-LC3 tandem reporter. Nuclei stained with Hoechst 33342, autophagosomes are shown in the EGFP channel and autolysosomes in the mCherry channel. Fold change in the number of autophagosome (K) and autolysosome (L) puncta in AUTAC4 treated cells. All data shown are mean±SEM, n=3, *p<0.05, *** p<0.001. For mito-mKeima experiments, statistics were calculated by Two-way ANOVA with Tukey's multiple comparisons test. For western blots, TMRM and LC3 tandem reporter assay, statistics were calculated with one-way ANOVA with Tukey's multiple comparisons test.
# as §1
# SH-SY5Y stably expressing mito-mKeima were produced as previously described28,29. Cells were seeded in 384 well CellCarrier Ultra plates (PerkinElmer) 24 hours before treatment in complete media without phenol red. Cells were treated with increasing concentrations of BL-918, AUTAC4, NZ-65 or NZ-66, 24 hours prior to treatment with increasing concentrations of mitochondrial uncouplers to cause mitochondrial insult. SH-SY5Y mitochondria were treated with DMSO, 3 μM CCCP, 10 μM CCCP, 0.1/0.1 μM antimycin/oligomycin (AO), 0.5/0.5 µM AO or 1/1 μM AO. […]
# Mfn2 = test: Western blot, Mfn2 degradation in MEF WT; type: cell-based, mouse; conditions: with ULKTAC; cells not given
# Protocol: FIG. 6. ULKTACs rely on ULK1 for the redirection of autophagy components to mitochondria and subsequent mitophagic degradation (A) Western blot of mouse embryonic fibroblasts (MEF) WT and MEF ULK1/2^−/− treated with 1 mM ULKTACs, 5 mM CCCP or both and probed for ULK1, Mfn2 and Actin—quantification of the relative intensity of Mfn2 shown in (B), normalised to Actin. Representative immunofluorescence of MEF WT (C) and MEF ULK1/2^−/− (D) treated with 5 mM CCCP, 1 mM ULKTACs or both and immunostained for Alexa 488 ATP5a and Alexa 647 LC3B. Quantification of the colocalised LC3 to ATP5a spot area shown in WT vs ULK1/2^−/− treated MEF cells shown in (E). Data shown are mean±SEM, n=3, *p<0.05, ** p<0.01, *** p<0.001, Two-way ANOVA with Tukey's multiple comparisons test.
# Cells were homogenised in protein lysis buffer consisting of 0.1 M Tris pH 8.0, 0.1 M NaCl, 5% glycerol, IGEPAL® CA-630 (#18896. Sigma-Aldrich) and 5 mM EDTA, 0.1 M N-ethyl maleimide (ThermoFisher, #23030) and protease inhibitor (Cell Signalling Technologies, #5871). Protein concentrations were determined using the BCA assay to ensure equal loading. […] The membranes were immunoblotted with primary antibodies, overnight at 4° C. ULK1 (D8H5) Rabbit mAb (#0854) [1:1000], Phospho-ULK1 (Ser 317) Rabbit antibody (#37762) [1:1000], LC3B Rabbit antibody (#2775) [1:1000], TOM20 (D8T4N) Rabbit mAb (#42406) [1:1000] and, Phospho-Ubiquitin (Ser 65) (E2J6T) Rabbit mAb (#62082) [1:500] were obtained from Cell Signalling Technologies. Recombinant Anti-Vinculin Rabbit antibody (EPR8185) (#ab129002) [1:5000] and Anti-Mitofusin2 mouse antibody (6A8) (#ab56889) [1:1000] were purchased from Abcam. Anti-Actin mouse monoclonal antibody (#A1978) [1:1000] and Anti-rabbit p62/SQSTM1 (#P0067) [1:1000], were purchased from Sigma-Aldrich. Mono- and polyubiquitinylated conjugates monoclonal antibody (FK2) (BML-PW8810-0100) [1:500] was purchased from Enzo Life Sciences. Anti BRD4 (E2A7X) rabbit monoclonal antibody (#13440), Anti c-MYC (D84C12) rabbit monoclonal antibody (#5605) [1:1000], Anti GAPDH (D4C6R) mouse monoclonal antibody (#97166) [1:1000], Anti Max (S20) rabbit monoclonal antibody (#4739) [1:1000] were purchased from Cell Signalling Technologies. Anti Phospho-CHK1 (Ser 345) rabbit monoclonal antibody (#2341) [1:1000], Anti gamma-H2AX (Ser 139) rabbit monoclonal antibody (#2577) [1:1000] were obtained from Cell Signalling Technologies, Anti RPA32/RPA2 (phospho S4/S8) rabbit monoclonal antibody (ab87277) [1:1000] were obtained from Abcam.
# Membranes were then incubated with horseradish peroxidase (HRP)-conjugated secondary antibodies (Rabbit #7074 and Mouse #7076) purchased from Cell Signalling Technologies for 1 hour and the HRP signal was detected using EZ-ECL Enhanced Chemiluminescence Detection Kit for HRP (#20-500-500, Sartorius), and imaged with an Alliance Q9 Advanced (UVITec). Where required, membranes were stripped with mild stripping buffer consisting of 0.2 M glycine, 3.47 mM SDS, 1% Tween 20, pH 2.2, blocked for 1 hour with TBS-T+3% BSA and re-probed with primary antibodies.
# Therefore, we conclude that NZ-65 and NZ-66 are novel ULKTAC molecules that initiate the recruitment of ULK1 to mitochondria, leading to an increase in local ULK1 activity, the formation of an autophagosome and mitophagy.
compound,measurement,setting,value
"NC(=O)C(=O)c1c(-c2ccccc2)[nH]c2ccccc12 [TSPO ligand, reference compound]",co-localisation of ULK1 and TOM20,ULK1,neither BL-918 nor the TSPO ligand alone induce co-localisation
"N#CC(C#N)=NNc1cccc(Cl)c1 [CCCP, reference compound]",induction of mitophagy,SH-SY5Y cells,induction of mitophagy
"COc1ccc(Nc2ncc(C(F)(F)F)c(NC3CC3)n2)cc1OC [SBP-7455, reference compound]",ULKTAC mediated degradation of Mfn2 in presence of dual ULK1/2 inhibitor,Mfn2,additionally demonstrating the requirement for ULK1 for ULKTAC mediated degradation of Mfn2

# — patent US20260335323A1, “CHIMERIC MOLECULE” (UCL Business Ltd, priority 2023, published 2026)
